Structures are written as SMILES.

human RIP1 kinase domain (2-375), sequence (Q13546 2-375): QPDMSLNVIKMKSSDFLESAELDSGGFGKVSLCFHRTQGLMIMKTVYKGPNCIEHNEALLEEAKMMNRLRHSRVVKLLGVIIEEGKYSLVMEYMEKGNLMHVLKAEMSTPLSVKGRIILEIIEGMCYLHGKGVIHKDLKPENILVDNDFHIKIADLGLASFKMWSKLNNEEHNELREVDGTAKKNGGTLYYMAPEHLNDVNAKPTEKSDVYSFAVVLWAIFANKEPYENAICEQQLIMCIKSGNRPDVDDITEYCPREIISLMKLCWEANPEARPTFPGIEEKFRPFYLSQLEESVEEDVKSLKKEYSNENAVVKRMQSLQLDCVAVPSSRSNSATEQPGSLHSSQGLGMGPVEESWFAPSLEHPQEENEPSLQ

The target in this assay is human RIP1 kinase domain (2-375) (Homo sapiens (Human), UniProt Q13546). Description: biochemical. It counts as biochemical. The following applies: tight-binding apparent inhibition constant; human RIP1 kinase domain (2-375) 50 nM, 50 uM ATP, 2 hours; read-out: Ki. Here is the method:
Example 794: RIP1 Kinase Inhibition Assays (Biochemical Assay)
The compounds of the present invention were tested for their capacity to inhibit RIP1K activity as described below.
The ability of the receptor interacting protein kinase (RIPK1) to catalyze the hydrolysis of adenosine-5′-triphosphate (ATP) is monitored using the Transcreener ADP (adenosine-5′-diphosphate) assay (BellBrook Labs). Purified human RIP1 kinase domain (2-375) (50 nM) derived from a baculovirus-infected insect cell expression system is incubated with test compounds for 2 hours in 50 mM Hepes buffer (pH 7.5) containing 30 mM MgCl2, 1 mM dithiothreitol, 50 uM ATP, 0.002% Brij-35, and 0.5% dimethyl sulfoxide (DMSO). […] The tracer bound to the antibody is displaced by the ADP generated during the RIP1K reaction, which causes a decrease in fluorescence polarization that is measured by laser excitation at 633 nm with a FP microplate reader M1000. Fractional activity was plotted against test article concentration. Using Genedata Screener software (Genedata; Basel, Switzerland), the data were fit to the tight-binding apparent inhibition constant (Ki^app) Morrison equation [Williams, J. W. and Morrison, J. F. (1979) The kinetics of reversible tight-binding inhibition. Methods Enzymol 63: 437-67]. The following equation was used to calculate fractional activity and Ki^app:
[formula] where [E]T and [I]T are the total concentrations of active enzyme and test article, respectively.
“Method” in the first column of each table refers to the synthetic method(s) used to prepare each compound as shown in the Examples above. In certain examples, chiral column retention times (min) are provided for certain stereoisomers.
`CC[C@@]1(C)OCc2cnc(C(=O)N[C@H]3COc4ccccc4N(C)C3=O)nc21` (mixture of isomers) [Example 682, (7R)-7-ethyl-7-methyl-N-[rac-(3S)-5-methyl-4-oxo-2,3-dihydro-1,5-benzoxazepin-3-yl]-5H-furo[3,4-d]pyrimidine-2-carboxamide]: the Ki amounted to 73.8 nM.
The value for `CCC[C@]1(C)OCc2cnc(C(=O)N[C@H]3COc4ccccc4N(C)C3=O)nc21` (mixture of isomers) [Example 683, (7S)-7-methyl-7-propyl-N-[rac-(3S)-5-methyl-4-oxo-2,3-dihydro-1,5-benzoxazepin-3-yl]-5H-furo[3,4-d] pyrimidine-2-carboxamide] was 10.9 nM; that for `CN1C(=O)[C@@H](NC(=O)c2ncn(Cc3ccc(F)cc3)n2)CCn2nccc21` (racemic) [Example 339, 1-[(4-fluorophenyl)methyl]-N-[rac-(6S)-4-methyl-5-oxo-7,8-dihydro-6H-pyrazolo[1,5-a][1,3]diazepin-6-yl]-1,2,4-triazole-3-carboxamide] was 28.2 nM.
The value for `CN1C(=O)[C@@H](NC(=O)c2ncn(Cc3ccc(F)cc3F)n2)CCn2nccc21` (racemic) [Example 340, 1-[(2,4-difluorophenyl)methyl]-N-[rac-(6S)-4-methyl-5-oxo-7,8-dihydro-6H-pyrazolo[1,5-a][1,3]diazepin-6-yl]-1,2,4-triazole-3-carboxamide] was 12.8 nM; that for `CN1C(=O)[C@@H](NC(=O)c2ncn(Cc3ccc(F)c(F)c3)n2)CCn2nccc21` (racemic) [Example 341, 1-[(3,4-difluorophenyl)methyl]-N-[rac-(6S)-4-methyl-5-oxo-7,8-dihydro-6H-pyrazolo[1,5-a][1,3]diazepin-6-yl]-1,2,4-triazole-3-carboxamide] was 17 nM; that for `CN1C(=O)[C@@H](NC(=O)c2ncn(Cc3cccc(F)c3F)n2)CCn2nccc21` (racemic) [Example 342, 1-[(2,3-difluorophenyl)methyl]-N-[rac-(6S)-4-methyl-5-oxo-7,8-dihydro-6H-pyrazolo[1,5-a][1,3]diazepin-6-yl]-1,2,4-triazole-3-carboxamide] was 10.9 nM.
The value for `C=C(C)c1cc2n(n1)CCC(NC(=O)c1ncn(Cc3ccccc3)n1)C(=O)N2C` (racemic) [Example 365, 1-benzyl-N-(2-isopropenyl-4-methyl-5-oxo-7,8-dihydro-6H-pyrazolo[1,5-a][1,3]diazepin-6-yl)-1,2,4-triazole-3-carboxamide] was 31.1 nM.
As to `CN1C(=O)C(NC(=O)c2ncn(Cc3ccccc3)n2)CCn2nc(C(C)(F)F)cc21` (racemic) [Example 371, 1-benzyl-N-[2-(1,1-difluoroethyl)-4-methyl-5-oxo-7,8-dihydro-6H-pyrazolo[1,5-a][1,3]diazepin-6-yl]-1,2,4-triazole-3-carboxamide], the Ki worked out at 100 nM.
With `CN1C(=O)C(NC(=O)c2ncn(Cc3ccccc3)n2)CCn2nc(C(C)(C)O)cc21` (racemic) [Example 372, 1-benzyl-N-[2-(1-hydroxy-1-methyl-ethyl)-4-methyl-5-oxo-7,8-dihydro-6H-pyrazolo[1,5-a][1,3]diazepin-6-yl]-1,2,4-triazole-3-carboxamide], the Ki was determined as 488 nM.
Regarding `CN1C(=O)[C@@H](NC(=O)c2nc3n(n2)[C@@H](c2ccccc2)CCC3)CCn2nccc21` (racemic) [Example 385, (R)—N—((S)-4-methyl-5-oxo-5,6,7,8-tetrahydro-4H-pyrazolo[1,5-a][1,3]diazepin-6-yl)-5-phenyl-5,6,7,8-tetrahydro-[1,2,4]triazolo[1,5-a]pyridine-2-carboxamide], the Ki worked out at 24.4 nM.
The value for `CN1C(=O)[C@@H](NC(=O)c2nc3n(n2)[C@H](c2c(F)cccc2F)CCC3)CCn2nccc21` (racemic) [Example 400, (S)-5-(2,6-difluorophenyl)-N—((S)-4-methyl-5-oxo-5,6,7,8-tetrahydro-4H-pyrazolo[1,5-a][1,3]diazepin-6-yl)-5,6,7,8-tetrahydro-[1,2,4]triazolo[1,5-a]pyridine-2-carboxamide] was 834 nM; that for `CN1C(=O)[C@@H](NC(=O)c2nc3n(n2)[C@@H](c2c(F)cccc2F)CCC3)CCn2nccc21` (racemic) [Example 401, (R)-5-(2,6-difluorophenyl)-N—((S)-4-methyl-5-oxo-5,6,7,8-tetrahydro-4H-pyrazolo[1,5-a][1,3]diazepin-6-yl)-5,6,7,8-tetrahydro-[1,2,4]triazolo[1,5-a]pyridine-2-carboxamide] was 87.9 nM.
The value for `CC[C@@H]1CCCc2nc(C(=O)N[C@H]3COc4ccccc4N(C)C3=O)nn21` (racemic) [Example 402, (R)-5-ethyl-N—((S)-5-methyl-4-oxo-2,3,4,5-tetrahydrobenzo[b][1,4]oxazepin-3-yl)-5,6,7,8-tetrahydro-[1,2,4]triazolo[1,5-a]pyridine-2-carboxamide] was 8.7 nM; that for `CC[C@H]1CCCc2nc(C(=O)N[C@H]3COc4ccccc4N(C)C3=O)nn21` (racemic) [Example 403, (S)-5-ethyl-N—((S)-5-methyl-4-oxo-2,3,4,5-tetrahydrobenzo[b][1,4]oxazepin-3-yl)-5,6,7,8-tetrahydro-[1,2,4]triazolo[1,5-a]pyridine-2-carboxamide] was 81.9 nM; that for `CN1C(=O)[C@@H](NC(=O)c2nc3n(n2)[C@@H](c2cnn(C)c2)CCC3)COc2ccccc21` (racemic) [Example 407, (R)-5-(1-methyl-1H-pyrazol-4-yl)-N—((S)-5-methyl-4-oxo-2,3,4,5-tetrahydrobenzo[b][1,4]oxazepin-3-yl)-5,6,7,8-tetrahydro-[1,2,4]triazolo[1,5-a]pyridine-2-carboxamide] was 54.9 nM.
The value for `CN1C(=O)[C@@H](NC(=O)c2nc3n(n2)[C@@H](C2CCOCC2)CCC3)COc2ccccc21` (racemic) [Example 409, (R)—N—((S)-5-methyl-4-oxo-2,3,4,5-tetrahydrobenzo[b][1,4]oxazepin-3-yl)-5-(tetrahydro-2H-pyran-4-yl)-5,6,7,8-tetrahydro-[1,2,4]triazolo[1,5-a]pyridine-2-carboxamide] was 565 nM.
As to `CN1C(=O)[C@@H](NC(=O)c2nc3n(n2)[C@H](C2CCOCC2)CCC3)COc2ccccc21` (racemic) [Example 410, (S)—N—((S)-5-methyl-4-oxo-2,3,4,5-tetrahydrobenzo[b][1,4]oxazepin-3-yl)-5-(tetrahydro-2H-pyran-4-yl)-5,6,7,8-tetrahydro-[1,2,4]triazolo[1,5-a]pyridine-2-carboxamide], the Ki came to 121 nM.
In the case of `CN1C(=O)[C@@H](NC(=O)c2nc3n(n2)[C@H](c2cnn(C)c2)CCC3)COc2ccccc21` (racemic) [Example 411, (S)-5-(1-methyl-1H-pyrazol-4-yl)-N—((S)-5-methyl-4-oxo-2,3,4,5-tetrahydrobenzo[b][1,4]oxazepin-3-yl)-5,6,7,8-tetrahydro-[1,2,4]triazolo[1,5-a]pyridine-2-carboxamide], the Ki was 6500 nM.
Consider `CC(C)[C@@H]1CCCc2nc(C(=O)N[C@H]3COc4ccccc4N(C)C3=O)nn21` (racemic) [Example 414, (S)-5-isopropyl-N—((S)-5-methyl-4-oxo-2,3,4,5-tetrahydrobenzo[b][1,4]oxazepin-3-yl)-5,6,7,8-tetrahydro-[1,2,4]triazolo[1,5-a]pyridine-2-carboxamide], for which the Ki amounted to 13.6 nM.
